The values below come from patent publication US8884022B2, “Inhibition of bacterial biofilms with aryl carbamates” (North Carolina State University, priority 2010, dated 2014).

The subject of one series is MRSA. Nature of the series: Biofilm inhibition, crystal violet assay. It is filed as cell-based, methicillin-resistant S. aureus. The following applies: for biofilm inhibition activity (in words) / inhibition at 200 µM / IC50: MRSA; for inhibition at 200 µM / IC50: Staphylococcus aureus; for inhibition at 200 µM: read-out: % Inhibition of biofilm formation; for IC50: concentration that inhibits 50% of biofilm formation. The protocol:
(§1) Procedure to Determine the Inhibitory Effect of Test Compounds.
(§2) Inhibition assays were performed by taking an overnight culture of bacterial strain and subculturing it at an OD600 of 0.01 into the medium. Stock solutions of predetermined concentrations of the test compound were then made in the medium. These stock solutions were aliquoted (100 μL) into the wells of the 96-well PVC microtiter plate. Sample plates were then wrapped in GLAD Press n'Seal® followed by an incubation under stationary conditions for 24 h at 37° C. After incubation, the medium was discarded from the wells and the plates were washed thoroughly with water. Plates were then stained with 100 μL of 0.1% solution of crystal violet (CV) and then incubated at ambient temperature for 30 min. Plates were washed with water again and the remaining stain was solubilized with 200 μL of 95% ethanol. A sample of 125 μL of solubilized CV stain from each well was transferred to the corresponding wells of a polystyrene microtiter dish. Biofilm inhibition was quantitated by measuring the OD540 of each well in which a negative control lane wherein no biofilm was formed served as a background and was subtracted out.

For series [1], the system named is S. aureus strain ATCC 29213. Nature of the series: Biofilm inhibition, crystal violet assay. The following applies: for biofilm inhibition activity (in words): 29213, 200 μM; for IC50: Staphylococcus aureus, ATCC29213, S. aureus ATCC 29213. It is filed as cell-based. On the procedure: (§3) Given the potency of our lead compounds toward inhibiting MRSA biofilms, we next explored their activity against various other S. aureus strains. […] IC50 values were determined for each compound against each of the S. aureus strains.
as §1, §2

The next series has as its system E. coli. Kind of series: Biofilm inhibition, crystal violet assay. The series is classed as cell-based. The following applies: for inhibition at 200 µM / IC50: Escherichia coli; for inhibition at 200 µM: read-out: % Inhibition of biofilm formation; for IC50: concentration that inhibits 50% of biofilm formation. The protocol:
as §1, §2

A further series relates to S. epidermidis. Nature of the series: Biofilm inhibition, crystal violet assay. It is filed as cell-based. Conditions: 200 μM. The protocol: as §1, §2
The next series has as its system VRE. Kind of series: Biofilm inhibition, crystal violet assay. The series is classed as cell-based, vancomycin-resistant Enterococcus faecium. The following applies: 200 μM. The protocol: as §1, §2
Series [2] deals with R. salexigens. Nature of the series: Biofilm inhibition, crystal violet assay. It is filed as cell-based, Rhodospirillum salexigens. Conditions: 200 μM. The protocol:
as §1, §2

The subject of another series is MDRAB. Nature of the series: Biofilm inhibition, crystal violet assay. It is filed as cell-based, multi-drug resistant Acinetobacter baumannii. The following applies: 200 μM. The protocol: as §1, §2
Series [3] concerns red blood cell (difibrinated sheep blood). Kind of series: Red blood cell hemolysis assay. It is filed as cell-based. Conditions: up to the highest concentration tested (1.2 mM). On the procedure: This was assessed using a red blood cell hemolysis assay using difibrinated sheep blood.
Red Blood Cell Hemolysis Assay.
Hemolysis assays were performed on mechanically difibrinated sheep blood (Hemostat Labs: DSB100). 1.5 mL of blood was placed into a microcentrifuge tube and centrifuged at 10000 rpm for ten minutes. The supernatant was removed and then the cells were resuspended with 1 mL of phosphate-buffered saline (PBS). The suspension was centrifuged, the supernatant was removed and cells resuspended two more times. The final cell suspension was then diluted tenfold. Test compound solutions were made in PBS in small culture tubes and then added to aliquots of the tenfold suspension dilution. PBS alone was used as a negative control and as a zero hemolysis marker whereas a 1% Triton X sample was used as a positive control and the 100% lysis marker. Samples were then placed in an incubator at 37° C. while being shaken at 200 rpm for one hour. After one hour, the samples were transferred to microcentrifuge tubes and then centrifuged at 10000 rpm for ten minutes. The resulting supernatant was diluted by a factor of 40 in distilled water. The absorbance of the supernatant was measured with a UV spectrometer at a 540 nm wavelength.

Series [4] has as its system R. salexigens. Conditions: reported by Yamada et al.; cited from earlier work.
Series [5] has as its system S. aureus strain ATCC 25923. Nature of the series: Biofilm inhibition, crystal violet assay. It is filed as cell-based. Conditions: Staphylococcus aureus, ATCC25923; S. aureus ATCC 25923. The protocol: as §3, §1, §2
The test system of series [6] is S. aureus strain ATCC 29740. Kind of series: Biofilm inhibition, crystal violet assay. The series is classed as cell-based. Conditions: Staphylococcus aureus, ATCC29740; S. aureus ATCC 29740. On the procedure: as §3, §1, §2

Molecules are shown by their SMILES.

In the case of `CC(C)CCC[C@@H](C)C1CCC2[C@@H]3CC=C4C[C@@H](OC(=O)N5CCc6ccccc65)CC[C@]4(C)[C@H]3CC[C@]12C` (stereo partly shown), the melting point – broadly, the temperature, or range, at which the solid turns liquid – lay within 142 to 145 °C.

Molecule `CC(C)CCC[C@@H](C)C1CCC2[C@@H]3CC=C4C[C@@H](OC(=O)NCCc5ccc(N)cc5)CC[C@]4(C)[C@H]3CC[C@]12C` (stereo partly shown) returned a melting point of 135 to 139 °C.

Consider `COC1CC(C)CCC1C(C)C` (single isomer, unassigned; (-)) [(−)-menthol methyl ether, reference compound], for which the “biofilm inhibition activity (in words)” value (in the series on MRSA (200 μM); in [1]) was “completely inactive” in each case.

Turning to `CC1CCC(C(C)C)C(O)C1` (single isomer, unassigned; (-)) [(−)-menthol, reference compound], the “biofilm inhibition activity (in words)” value (in the series with MRSA (200 μM); in [1]) was “completely inactive” each time.

`CCOC(=O)NCCc1ccccc1` [Compound 2d, ethyl N-(2-phenethyl) carbamate]: the “% Inhibition of biofilm formation” value with E. coli (200 μM) stood at 40.8%; in the series on S. epidermidis it was 63.1%; in the series with MRSA (200 μM), 68.1%; in the series with VRE, 80.2%; in the series on R. salexigens [2] it was 59.7%; with MDRAB it was 52.0%. For the same molecule, the “red blood cell lysis” value in [3] is on record as “no red blood cell lysis”. The “antibiofilm activity reported in the literature” value in the series with R. salexigens [4] was “moderate antibiofilm activity”.

As to `CC(C)[C@@H]1CC[C@@H](C)C[C@H]1OC(=O)NCCn1nccn1` [Compound 5a, (1R,2S,5R)-2-isopropyl-5-methylcyclohexyl 2-(2H-1,2,3-triazol-2-yl)ethylcarbamate], the inhibition (as a rule, the drop in the measured response relative to a control, in per cent) at 200 µM in the series with E. coli (200 μM) is over 80%. Besides, the IC50 – broadly, the concentration that gives 50% inhibition – in the series with E. coli came out at 28.3 µM.

With `CC(C)[C@@H]1CC[C@@H](C)C[C@H]1OC(=O)NCCc1ccc(N)cc1` [Compound 8a, (1R,2S,5R)-2-isopropyl-5-methylcyclohexyl 4-aminophenethylcarbamate], the inhibition at 200 µM with MRSA (200 μM) was over 90%. The IC50 with MRSA worked out at 49.8 µM; in [5] it was 71.9 µM; in series [1], 21.2 µM; in series [6] it was 24.3 µM. Moreover, the “red blood cell lysis” value in series [3] is “no red blood cell lysis”.

As for `CC(C)[C@@H]1CC[C@@H](C)C[C@H]1OC(=O)NCCc1ccccn1` [Compound 9a, (1R,2S,5R)-2-isopropyl-5-methylcyclohexyl 2-(pyridin-2-yl)ethylcarbamate], the melting point fell in the range of 59 to 63 °C. Besides, in the series on E. coli (200 μM), the inhibition at 200 µM was over 80%. Further, it took 34.6 µM to reach half-maximal inhibition in the series with E. coli (IC50). For the same molecule, the inhibition at 200 µM in the series on MRSA (200 μM) was over 90%. This molecule showed an IC50 in the series on MRSA of 4.87 µM. Also, in series [5], half-maximal inhibition (IC50) was put at 19.7 µM. The same molecule had an IC50 in series [1] of 124 µM. This molecule also displayed a half-maximal inhibitory concentration (IC50) in series [6] of 82.2 µM. In addition, the “red blood cell lysis” value in series [3] was “no red blood cell lysis”.

Consider `CC(C)[C@H]1CC[C@H](C)C[C@@H]1OC(=O)NCCc1ccccn1` [Compound 9k, (1S,2R,5S)-2-isopropyl-5-methylcyclohexyl 2-(pyridin-2-yl)ethylcarbamate], for which the melting point fell in the range of 57 to 59 °C. Further, the “biofilm inhibition activity (in words)” value with MRSA (200 μM) is “identical antibiofilm properties as their enantiomers”. For the same molecule, the “biofilm inhibition activity (in words)” value in [1] was “identical antibiofilm properties as their enantiomers”.
